In patent publication US4921850A, “3-propenylcephem derivative” (Eisai Co., Ltd., priority 1986, dated 1990):
≈ marks a conversion by molar mass, not a printed value. Read-outs that look alike come from different tables or passages of the source.

Experiments:
Assay in all cases: Anti-bacterial activity (MIC), agar dilution
Format in all cases: cell-based
Escher. coli NIHJ = conditions: Escher. coli NIHJ, agar dilution, about 10^6 CFU/ml, 18 hours, 37° C.
In short: (§1)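 MIC values (μg/ml) come from agar dilution: strains grown overnight in Mueller-Hinton broth, diluted to roughly 10^6 CFU/ml, spotted on Mueller-Hinton agar containing twofold serial antibiotic dilutions, and read after 18 hours at 37° C.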

Kleb. pneumoniae EK-6 = conditions: Kleb. pneumoniae EK-6, agar dilution, about 10^6 CFU/ml, 18 hours, 37° C.
In short: as §1

[1] = test system: Morganella morganii EP-14; conditions: about 10^6 CFU/ml, 37° C.
In short: as §1

Pseud. aeruginosa EP-01 = conditions: Pseud. aeruginosa EP-01, agar dilution, about 10^6 CFU/ml, 18 hours, 37° C.
In short: as §1

Ser. marcescens ES-75 = conditions: Ser. marcescens ES-75, agar dilution, about 10^6 CFU/ml, 18 hours, 37° C.
In short: as §1

Staph. aureus 209-P = conditions: Staph. aureus 209-P, agar dilution, about 10^6 CFU/ml, 18 hours, 37° C.
In short: as §1

[2] = Escherichia coli, 18 h, read-out: MIC
[3] = Klebsiella pneumoniae, EK6, 18 h, read-out: MIC
[4] = Morganella morganii, EP14, 18 h, read-out: MIC
[5] = Pseudomonas aeruginosa, EP01, 18 h, read-out: MIC
[6] = Serratia marcescens, ES75, 18 h, read-out: MIC
[7] = Staphylococcus aureus, 209P, 18 h, read-out: MIC

SMILES | MIC (Escher. coli NIHJ; [2]) [µg/mL] | MIC (Kleb. pneumoniae EK-6; [3]) [µg/mL] | MIC [1, 4] [µg/mL] | MIC (Pseud. aeruginosa EP-01; [5]) [µg/mL] | MIC (Ser. marcescens ES-75; [6]) [µg/mL] | MIC (Staph. aureus 209-P; [7]) [µg/mL] | MIC (Escher. coli NIHJ) [µg/mL] | MIC (Kleb. pneumoniae EK-6) [µg/mL] | MIC ([1]; 18 hours) [µg/mL] | MIC (Pseud. aeruginosa EP-01) [µg/mL] | MIC (Ser. marcescens ES-75) [µg/mL] | MIC (Staph. aureus 209-P) [µg/mL]
CN(C)CCn1nnnc1SCC1=C(C(=O)O)N2C(=O)[C@@H](NC(=O)Cc3csc(N)n3)[C@H]2SC1 [CTM, Cefotiam, reference compound] | 0.1 (≈ 0.19 µM) | 0.1 (≈ 0.19 µM) | 0.2 (≈ 0.38 µM) | > 100 | 6.25 (≈ 11.9 µM) | 0.2 (≈ 0.38 µM) |  |  |  |  |  | 
Nc1nc(/C(=N/OCF)C(=O)N[C@@H]2C(=O)N3C(C(=O)[O-])=C(/C=C/C[N+]4(CCO)CC=C(C=NO)CC4)CS[C@H]23)ns1 (stereo partly drawn) [Example 42] | ≤ 0.025 | 0.05 (≈ 0.0819 µM) | ≤ 0.025 | 1.56 (≈ 2.55 µM) | ≤ 0.025 | 0.2 (≈ 0.328 µM) |  |  |  |  |  | 
CC(=N)N1CC[N+](C)(C/C=C/C2=C(C(=O)[O-])N3C(=O)[C@@H](NC(=O)/C(=N\OCF)c4nsc(N)n4)[C@H]3SC2)CC1 [Example 26] | 0.1 (≈ 0.172 µM) | 0.1 (≈ 0.172 µM) | 0.1 (≈ 0.172 µM) | 0.8 (≈ 1.38 µM) | 0.4 (≈ 0.688 µM) | 0.2 (≈ 0.344 µM) |  |  |  |  |  | 
Nc1nc(/C(=N/OCF)C(=O)N[C@@H]2C(=O)N3C(C(=O)[O-])=C(/C=C/C[N+]4(CC(O)CO)CCCC4)CS[C@H]23)ns1 (single isomer, unassigned) [Example 23-2] |  |  |  |  |  |  | 0.05 (≈ 0.0854 µM) | ≤ 0.025 | 0.05 (≈ 0.0854 µM) | 1.56 (≈ 2.66 µM) | ≤ 0.025 | 0.2 (≈ 0.342 µM)
CNC(=O)CC[N+](C)(C)C/C=C/C1=C(C(=O)[O-])N2C(=O)[C@@H](NC(=O)/C(=N\OCF)c3nsc(N)n3)[C@H]2SC1 [Example 97] | ≤ 0.025 | ≤ 0.025 | ≤ 0.025 | 0.8 (≈ 1.4 µM) | ≤ 0.025 | 0.2 (≈ 0.35 µM) |  |  |  |  |  | 
Nc1nc(/C(=N/OCF)C(=O)N[C@@H]2C(=O)N3C(C(=O)[O-])=C(/C=C/C[N+]4(CCO)CCN(CCO)CC4)CS[C@H]23)ns1 [Example 27] | 0.05 (≈ 0.0813 µM) | ≤ 0.025 | 0.05 (≈ 0.0813 µM) | 1.56 (≈ 2.54 µM) | 0.1 (≈ 0.163 µM) | 0.4 (≈ 0.651 µM) |  |  |  |  |  | 
COCC[N+](C)(C)C/C=C/C1=C(C(=O)[O-])N2C(=O)[C@@H](NC(=O)/C(=N\OCF)c3nsc(N)n3)[C@H]2SC1 [Example 99] | ≤ 0.025 | ≤ 0.025 | ≤ 0.025 | 1.56 (≈ 2.87 µM) | ≤ 0.025 | 0.2 (≈ 0.368 µM) |  |  |  |  |  | 
C[N+](C)(C/C=C/C1=C(C(=O)[O-])N2C(=O)[C@@H](NC(=O)/C(=N\OCF)c3nsc(N)n3)[C@H]2SC1)C(CO)CO [Example 95] | 0.05 (≈ 0.0893 µM) | ≤ 0.025 | ≤ 0.025 | 0.8 (≈ 1.43 µM) | ≤ 0.025 | 0.2 (≈ 0.357 µM) |  |  |  |  |  | 
NC(=O)NCC[N+]1(C/C=C/C2=C(C(=O)[O-])N3C(=O)[C@@H](NC(=O)/C(=N\OCF)c4nsc(N)n4)[C@H]3SC2)CCN(C(N)=O)CC1 [Example 32] | ≤ 0.025 | ≤ 0.025 | ≤ 0.025 | 1.56 (≈ 2.38 µM) | 0.05 (≈ 0.0763 µM) | 0.2 (≈ 0.305 µM) |  |  |  |  |  | 
NC(=O)Cc1ccc[n+](C/C=C/C2=C(C(=O)[O-])N3C(=O)[C@@H](NC(=O)/C(=N\OCF)c4nsc(N)n4)[C@H]3SC2)c1 [Example 85] | ≤ 0.025 | ≤ 0.025 | ≤ 0.025 | 1.56 (≈ 2.71 µM) | ≤ 0.025 | 0.2 (≈ 0.347 µM) |  |  |  |  |  | 
C[N+](C)(C/C=C/C1=C(C(=O)[O-])N2C(=O)[C@@H](NC(=O)/C(=N\OCF)c3nsc(N)n3)[C@H]2SC1)CCO [Example 64] | ≤ 0.025 | ≤ 0.025 | ≤ 0.025 | 0.8 (≈ 1.51 µM) | 0.1 (≈ 0.189 µM) | 0.2 (≈ 0.378 µM) |  |  |  |  |  | 
C[N+](C)(C/C=C/C1=C(C(=O)[O-])N2C(=O)[C@@H](NC(=O)/C(=N\OCF)c3nsc(N)n3)[C@H]2SC1)Cc1ccn[nH]1 [Example 102] | ≤ 0.025 | ≤ 0.025 | ≤ 0.025 | 1.56 (≈ 2.76 µM) | 0.05 (≈ 0.0884 µM) | 0.2 (≈ 0.354 µM) |  |  |  |  |  | 
CN(C)C(=O)CC[N+](C)(C)C/C=C/C1=C(C(=O)[O-])N2C(=O)[C@@H](NC(=O)/C(=N\OCF)c3nsc(N)n3)[C@H]2SC1 [Example 98] | 0.05 (≈ 0.0855 µM) | 0.05 (≈ 0.0855 µM) | ≤ 0.025 | 3.13 (≈ 5.35 µM) | 0.05 (≈ 0.0855 µM) | 0.4 (≈ 0.684 µM) |  |  |  |  |  | 
NC(=O)C[N+]1(C/C=C/C2=C(C(=O)[O-])N3C(=O)[C@@H](NC(=O)/C(=N\OCF)c4nsc(N)n4)[C@H]3SC2)CCN(C(N)=O)CC1 [Example 31] | 0.05 (≈ 0.0798 µM) | ≤ 0.025 | ≤ 0.025 | 1.56 (≈ 2.49 µM) | 0.1 (≈ 0.16 µM) | 0.4 (≈ 0.638 µM) |  |  |  |  |  | 
C[N+](C)(C/C=C/C1=C(C(=O)[O-])N2C(=O)[C@@H](NC(=O)/C(=N\OCF)c3nsc(N)n3)[C@H]2SC1)[C@@H](CO)C(N)=O [Example 62] | ≤ 0.025 | ≤ 0.025 | ≤ 0.025 | 0.4 (≈ 0.699 µM) | ≤ 0.025 | 0.2 (≈ 0.349 µM) |  |  |  |  |  | 
CC(O)C[N+]1(C/C=C/C2=C(C(=O)[O-])N3C(=O)[C@@H](NC(=O)/C(=N\OCF)c4nsc(N)n4)[C@H]3SC2)CCOCC1 (stereo partly drawn) [Example 39] | 0.05 (≈ 0.0854 µM) | ≤ 0.025 | 0.05 (≈ 0.0854 µM) | 1.56 (≈ 2.66 µM) | 0.1 (≈ 0.171 µM) | 0.2 (≈ 0.342 µM) |  |  |  |  |  | 

Further lines, results first:

MIC (Escher. coli NIHJ; [2]) [µg/mL] | MIC (Kleb. pneumoniae EK-6; [3]) [µg/mL] | MIC [1, 4] [µg/mL] | MIC (Pseud. aeruginosa EP-01; [5]) [µg/mL] | MIC (Ser. marcescens ES-75; [6]) [µg/mL] | MIC (Staph. aureus 209-P; [7]) [µg/mL] | MIC (Escher. coli NIHJ) [µg/mL] | MIC (Kleb. pneumoniae EK-6) [µg/mL] | MIC ([1]; 18 hours) [µg/mL] | MIC (Pseud. aeruginosa EP-01) [µg/mL] | MIC (Ser. marcescens ES-75) [µg/mL] | MIC (Staph. aureus 209-P) [µg/mL] | SMILES
0.05 (≈ 0.0793 µM) | 0.05 (≈ 0.0793 µM) | 0.05 (≈ 0.0793 µM) | 1.56 (≈ 2.47 µM) | 0.05 (≈ 0.0793 µM) | 0.4 (≈ 0.634 µM) |  |  |  |  |  |  | CC(=O)NCC[N+](C/C=C/C1=C(C(=O)[O-])N2C(=O)[C@@H](NC(=O)/C(=N\OCF)c3nsc(N)n3)[C@H]2SC1)(CCO)CCO [Example 51]
≤ 0.025 | ≤ 0.025 | 0.05 (≈ 0.0913 µM) | 0.8 (≈ 1.46 µM) | 0.1 (≈ 0.183 µM) | 0.1 (≈ 0.183 µM) |  |  |  |  |  |  | CN1CCC[N+]1(C)C/C=C/C1=C(C(=O)[O-])N2C(=O)[C@@H](NC(=O)/C(=N\OCC#N)c3nsc(N)n3)[C@H]2SC1 (single isomer, unassigned) [Example 160-A]
0.05 (≈ 0.0854 µM) | ≤ 0.025 | ≤ 0.025 | 1.56 (≈ 2.66 µM) | ≤ 0.025 | 0.2 (≈ 0.342 µM) |  |  |  |  |  |  | Nc1nc(/C(=N/OCF)C(=O)N[C@@H]2C(=O)N3C(C(=O)[O-])=C(/C=C/C[N+]4(CCO)CCC(O)CC4)CS[C@H]23)ns1 (stereo partly drawn) [Example 91]
0.4 (≈ 0.67 µM) | 0.05 (≈ 0.0838 µM) | 0.05 (≈ 0.0838 µM) | 1.56 (≈ 2.61 µM) | 0.2 (≈ 0.335 µM) | 0.2 (≈ 0.335 µM) |  |  |  |  |  |  | N#CCO/N=C(\C(=O)N[C@@H]1C(=O)N2C(C(=O)[O-])=C(/C=C/C[N+](CCO)(CCO)CCO)CS[C@H]12)c1nsc(N)n1 [Example 147]
0.1 (≈ 0.167 µM) | 0.05 (≈ 0.0834 µM) | 0.1 (≈ 0.167 µM) | 1.56 (≈ 2.6 µM) | 0.05 (≈ 0.0834 µM) | 0.4 (≈ 0.667 µM) |  |  |  |  |  |  | C[N+](C)(C/C=C/C1=C(C(=O)[O-])N2C(=O)[C@@H](NC(=O)/C(=N\OCF)c3nsc(N)n3)[C@H]2SC1)[C@H](CC(N)=O)C(N)=O [Example 61]
0.05 (≈ 0.0797 µM) | ≤ 0.025 | ≤ 0.025 | 1.56 (≈ 2.49 µM) | ≤ 0.025 | 0.2 (≈ 0.319 µM) |  |  |  |  |  |  | NC(=O)N1CCC[N+](C/C=C/C2=C(C(=O)[O-])N3C(=O)[C@@H](NC(=O)/C(=N\OCF)c4nsc(N)n4)[C@H]3SC2)(CCO)CC1 (stereo partly drawn) [Example 101]
0.05 (≈ 0.09 µM) | ≤ 0.025 | 0.05 (≈ 0.09 µM) | 0.8 (≈ 1.44 µM) | ≤ 0.025 | 0.2 (≈ 0.36 µM) |  |  |  |  |  |  | C[N+]1(C/C=C/C2=C(C(=O)[O-])N3C(=O)[C@@H](NC(=O)/C(=N\OCF)c4nsc(N)n4)[C@H]3SC2)CCC(O)CC1 (stereo partly drawn) [Example 90]
